# Read-outs that look alike come from different tables or passages of the source.
# Assays:
# [1] = system: tobacco mosaic virus (TMV); test: Anti-TMV curative activity (treatment mode), live friction inoculation on tobacco seedlings; format: in vivo; conditions: Tobacco mosaic virus, read-out: Anti-TMV activity, Curative effect (inhibition), 100 μg/mL, tobacco seedlings, checked on seventh day
# [2] = system: tobacco mosaic virus (TMV); test: Anti-TMV inactivation activity (inactivation mode), compound mixed with TMV before inoculation of tobacco leaves; format: in vivo; conditions: Tobacco mosaic virus, read-out: Anti-TMV activity, Inactivation effect (inhibition)
# [3] = system: tobacco mosaic virus (TMV); test: Anti-TMV protective activity (protection mode), live friction inoculation on tobacco seedlings; format: in vivo; conditions: Tobacco mosaic virus, read-out: Anti-TMV activity, Protection effect (inhibition)
# [4] = system: tobacco mosaic virus (TMV); test: Anti-TMV inducing activity (induction mode), tobacco seedlings; format: in vivo; conditions: Tobacco mosaic virus, read-out: Anti-TMV activity, Induction effect (inhibition), 100 μg/mL, tobacco seedlings
# Alternaria solani = test: Fungicidal activity, fungi growth rate method, AS; format: cell-based; conditions: Alternaria solani; 50 μg/mL; read-out: Fungicidal activity, inhibition, AS
# Botrytis cinerea = test: Fungicidal activity, fungi growth rate method, BC; format: cell-based; conditions: Botrytis cinerea; 50 μg/mL; read-out: Fungicidal activity, inhibition, BC
# Cercospora arachidicola = test: Fungicidal activity, fungi growth rate method, CA; format: cell-based; conditions: Mycosphaerella arachidis; 50 μg/mL; read-out: Fungicidal activity, inhibition, CA
# wheat Gibberella zeae = test: microbe, parasite or virus in culture; format: cell-based; conditions: Fusarium graminearum, read-out: Fungicidal activity, inhibition, GZ
# [5] = system: Phytophthora infestans (Mont) de Bary; test: microbe, parasite or virus in culture; format: cell-based; conditions: Phytophthora infestans, read-out: Fungicidal activity, inhibition, PI
# Physalospora piricola = test: Fungicidal activity, fungi growth rate method, PP; format: cell-based; conditions: 50 μg/mL; read-out: Fungicidal activity, inhibition, PP
# Pellicularia sasakii = test: Fungicidal activity, fungi growth rate method, PS; format: cell-based; conditions: 50 μg/mL; read-out: Fungicidal activity, inhibition, PS
# Rhizoctonia cerealis = test: Fungicidal activity, fungi growth rate method, RC; format: cell-based; conditions: Ceratobasidium cereale; 50 μg/mL; read-out: Fungicidal activity, inhibition, RC
# Sclerotinia sclerotiorum = test: microbe, parasite or virus in culture; format: cell-based; conditions: Sclerotinia sclerotiorum, 50 μg/mL
# [6] = read-out: Fungicidal activity, inhibition, SS
# [7] = read-out: Fungicidal activity (inhibition) against SS: Sclerotinia sclerotiorum
SMILES,inhibition at 100 µg/mL [1] [%],inhibition at 100 µg/mL [2] [%],inhibition at 100 µg/mL [3] [%],inhibition at 100 µg/mL [4] [%],inhibition at 50 µg/mL (Alternaria solani) [%],inhibition at 50 µg/mL (Botrytis cinerea) [%],inhibition at 50 µg/mL (Cercospora arachidicola) [%],inhibition at 50 µg/mL (wheat Gibberella zeae) [%],inhibition at 50 µg/mL [5] [%],inhibition at 50 µg/mL (Physalospora piricola) [%],inhibition at 50 µg/mL (Pellicularia sasakii) [%],inhibition at 50 µg/mL (Rhizoctonia cerealis) [%],inhibition at 50 µg/mL (Sclerotinia sclerotiorum; [6]) [%],melting point [°C],inhibition at 50 µg/mL (Sclerotinia sclerotiorum; [7]) [%]
"O=C(OCc1ccc(Br)cc1)/C(=C/c1ccccc1)NC(=O)c1ccccc1 [Compound 61, N-[(1Z)-2-phenyl-1-[(4-bromophenymethoxyl)carbonyl]ethenyl]benzamide]",0,13,16,0,25,18,12,29,11,6,9,13,44,168 to 170,–
"O=C(N/C(=C\c1ccco1)C(=O)N1CCC(O)(c2ccc(Br)cc2)CC1)C1CCCCC1 [Compound 63, (Z)-N-[1-[[4-(4-bromophenyl)-4-hydroxy-1-piperidinyl]carbonyl]-2-(2-furanyl)ethenyl]cyclohexanecarboxamide]",36,50,53,9,29,35,24,57,21,18,14,21,44,121 to 123,–
"CC(C)(C)OC(=O)N1CCC(c2nc(C(=O)NCC(=O)O)cs2)CC1 [Compound 65, N-[[4-[2-[4-(1-Boc-piperidine)]thiazol]]formyl]ethanoic acid]",0,40,39,38,9,10,10,16,18,3,9,10,67,183 to 185,–
"O=C(O)/C(=C/c1ccccc1)NC(=O)C1CC1 [Compound 67, (Z)-2-cyclopropanoylamino-3-phenylpropenoic acid]",52,57,78,34,20,19,15,23,13,3,6,10,67,193 to 195,–
"O=C(O)/C(=C/c1ccccc1)NC(=O)c1ccc(C(F)(F)F)cc1 [Compound 68, (Z)-2-[4-(trifluoromethyl)benzoylamino]-3-phenylpropenoic acid]",0,3,37,34,13,20,12,17,18,7,13,9,73,184 to 186,60 to 80
"O=C(O)/C(=C/c1ccccc1)NC(=O)c1cccs1 [Compound 69, (Z)-2-(2-thiophanoylamino)-3-phenylpropenoic acid]",0,1,27,45,17,7,16,19,17,7,6,10,78,221 to 223,60 to 80

# Reference: patent publication US11166460B2, “α-amino acrylate microbicide, and preparation method therefor and uses thereof” (priority 2017, dated 2021)
